Consider 2 compounds from US11904049B2, “Pharmaceutical formulation” (priority 2017, dated 2024).

Counter-ions that a name gives are not always drawn.

One series is described as follows: in vivo. To be noted: male, beagle, dog, plasma, intravenous, 0.143 mg/kg.
For series [1] the following is noted: cited from earlier work.

Experimental for in vivo: The three beagle dogs used in the experiment were male, non-naïve beagle dogs, weighing 12.7-13.9 kg, 37-39.5 months old, from CEDS (France) at the first session.
At each test session, serial blood samples were collected in all dogs at 12 time points: pre-dose, and then 0.083 (5 min), 0.167 (10 min), 0.33 (20 min), 0.5 (30 min), 1, 2, 3, 4, 5, 6 and 8 hours after the initial application, giving therefore a total of 180 blood samples. At each time-point, a blood sample of 2 mL was collected by puncture in a jugual vein in conscious animals using an identified vacuum tube containing K2-EDTA (Greiner Bio-One ref #454047) for plasma preparation. Immediately after collection, the blood sample was gently agitated and stored on ice until centrifugation (within 30 minutes of sampling). The blood samples were centrifuged at 4° C., at 1500 g, for 10 minutes. The entire resultant plasma was immediately transferred into an identified 1 mL polypropylene screw capped cryotube (1 aliquot of at least 800 μL of plasma) maintained on ice. The tubes were stored upright at approximately −20° C. until shipment to the test site, ABS Laboratories (BioPark, Broadwater Road, Welwyn Garden City, Herts AL7 3AX), for analysis by HPLC-MS (high performance liquid chromatography-mass spectrometry) using a standard separation protocol.
Individual concentration (C) versus time (T) curves were analysed for standard pharmacokinetic (PK) parameters using non-compartmental analysis using the SimBiology package of MatLab, Version 2015b.

Broadly, the AUC(0-t) is exposure summed from dosing to a finite time, without extrapolation to infinity. A high value points to high exposure. One may read the Cmax as the highest concentration seen after dosing. What is called Tmax is the time at which the peak concentration occurs. Consider `C=CCN1CC[C@]23c4c5ccc(O)c4O[C@H]2C(=O)CC[C@@]3(O)[C@H]1C5` [Intravenous, Naloxone HCl], for which, in the series “in vivo”, the AUC(0-t) is 20.8 ng·h/mL, the peak level (Cmax) was 29.4 ng/mL, the Tmax is 6.7 min and the concentration at 5 min was found to be 28.2 ng/mL.

One may read the pKa as the pH at which an ionisable group is half protonated. For the compound `C=CCN1CC[C@]23c4c5ccc(O)c4O[C@H]2C(=O)CC[C@@]3(O)[C@H]1C5` [naloxone], the “strongest basic pKa” value in series [1] is on record as 10.07. Also, the pKa in series [1] (naloxone as a base) is recorded as 7.84.
